The results in this text go back to patent US8598161B2, “Compounds for the reduction of beta-amyloid production” (Bristol-Myers Squibb Company, priority 2011, dated 2013).

The subject of the test is Aβ42 production in H4 APP751 SWE clone 8.20 cells. The test is described as follows: Cellular assay for inhibition of Aβ1-42 production. Format: cell-based. The note with it: H4 cells stably transfected with APP751 Swedish mutation (clone 8.20), 19 h incubation. As to the method:
H4 cells stably transfected with APP751 containing the Swedish mutation (H4 APP751 SWE clone 8.20, developed at BMS) were maintained in log phase through twice weekly passage at a 1:20 split. […] Following incubation for 19 h in 5% CO2 at 37° C., plates were briefly centrifuged (1000 rpm, 5 min). A 10 μl aliquot from each well was transferred to a second assay plate (Costar 3709) for Aβ40 measurements. Antibody cocktails were freshly prepared by dilution into 40 mM Tris-HCl (pH 7.4) with 0.2% BSA and added to assay plates. For Aβ42 measurements, antibodies specific for the Aβ42 neoepitope (565, developed at BMS; conjugated to the Wallac reagent (Perkin Elmer)) and the N-terminal sequence of Aβ peptide (26D6, developed at SIBIA; conjugated to APC (Perkin Elmer)) were mixed and 20 μl of the mixture was added to each well of the incubated cell plate yielding a final concentration of 0.8 ng/well 565 and 75 ng/well 26D6. […] Assay plates containing antibodies were sealed with aluminum foil and incubated overnight at 4° C. Signal was determined using a Viewlux counter (Perkin Elmer) and IC50 values determined using curve fitting in CurveMaster (Excel Fit based).

For `NC1=N[C@@]2(c3cc(NC(=O)c4ccc(F)cn4)ccc3F)OCC[C@H]2CS1` (racemic) [Example 4, (±)-N-(3-((4aR,7aR)-2-amino-4a,5,6,7a-tetrahydro-4H-furo[2,3-d][1,3]thiazin-7a-yl)-4-fluorophenyl)-5-fluoropicolinamide], the IC50 worked out at 465 nM. The value for `NC1=N[C@@]2(c3cc(NC(=O)c4ccccn4)ccc3F)OCC[C@H]2CS1` (racemic) [Example 5, (±)-N-(3-((4aR,7aR)-2-amino-4a,5,6,7a-tetrahydro-4H-furo[2,3-d][1,3]thiazin-7a-yl)-4-fluorophenyl)picolinamide] was 856 nM; that for `CC#Cc1cncc(-c2cc([C@@]34N=C(N)SC[C@@H]3CCO4)c(F)cc2F)c1` (racemic) [Example 8, (±)-(4aR,7aR)-7a-(2,4-difluoro-5-(5-(prop-1-ynyl)pyridin-3-yl)phenyl)-4a,5,6,7a-tetrahydro-4H-furo[2,3-d][1,3]thiazin-2-amine] was 924 nM.

Compound `NC1=N[C@@]2(c3cc(NC(=O)c4ccc(Cl)cn4)ccc3F)OCC[C@H]2CS1` [Example 2, N-(3-((4aR,7aR)-2-amino-4a,5,6,7a-tetrahydro-4H-furo[2,3-d][1,3]thiazin-7a-yl)-4-fluorophenyl)-5-chloropicolinamide] yielded an IC50 of 24 nM. Under `N#Cc1ccc(C(=O)Nc2ccc(F)c([C@@]34N=C(N)SC[C@@H]3CCO4)c2)nc1` [Example 3, N-(3-((4aR,7aR)-2-amino-4a,5,6,7a-tetrahydro-4H-furo[2,3-d][1,3]thiazin-7a-yl)-4-fluorophenyl)-5-cyanopicolinamide] stands 72 nM; under `NC1=N[C@@]2(c3cc(-c4cncnc4)c(F)cc3F)OCCC[C@H]2CS1` [Example 11, (4aR,8aR)-8a-(2,4-difluoro-5-(pyrimidin-5-yl)phenyl)-4,4a,5,6,7,8a-hexahydropyrano[2,3-d][1,3]thiazin-2-amine], 995 nM.
